According to US20110160311A1, “Sweetness Enhancers, Compositions Thereof, and Methods for Use” (The Coca-Cola Company, priority 2009, published 2011):

What was measured:
[1] = Sweetness enhancement of glucose, fructose or sucrose at 6% SE in water by additive at its threshold level; type: in vivo, human; set-up: key: T: Slight thicker-like sweetness (not intensity factor).; No difference; N(S+): No difference but slightly more sweet (0.5-0.75%); +S: More sweetness intensity (~1.0% SE); ++S: Much more sweetness intensity (~2.0% SE); conditions: room temperature, additive at its Table 1 threshold level; for Sensory result versus FRU 55,000 ppm: fructose at 6% SE in water; for Sensory result versus GLU 99,000 ppm: glucose at 6% SE in water; for Sensory result versus SUC 60,000 ppm: sucrose at 6% SE in water
Procedure: (§1) A first sip (approximately 2.2 mL) of a ca. 20 mL control composition was taken and swallowed. After waiting for a time ranging from 15 to 25 seconds, a second sip of control composition was taken and swallowed, and the sweetness and/or taste of the control composition was noted. After waiting for a time ranging from 15 to 25 seconds, these steps were repeated with a comparative composition. The sweetness and taste differences between the control and the comparative composition were noted. For each tested composition, this cycle was repeated once to confirm the initial findings. All samples were measured at average 23.0° C.±1° C. between samples for consistent comparison and to minimize any effects of temperature on the perceived taste or sweetness of the composition.
(§2) To perform the taste test, three sweetener samples were paired with one additive and taste tested as described above. A three minute break was taken before tasting another three sweetener samples paired with a different additive. Up to 10 additives per day were used to minimize a fatigue factor. Before tasting, at least 1.5 hours elapsed after ingestion of any food, drink or nicotine. The tests were repeated on a different date to validate the initial findings.
The twenty-one entities above were combined in a concentration at the sweetness detection threshold level listed in Table 1, with one of Glucose (GLU), Fructose (FRU), and Sucrose (SUG), each at a fixed SE (Sucrose Equivalents) level of 6%. The sweetness of the compositions was measured as described above at room temperature.

[2] = Sweetness detection threshold level in water, multi-sip and swallow taste method; type: in vivo, human; conditions: for Sweetness Detection Threshold Level: in water at room temperature
Source text: As used herein, the terms “sweetness threshold,” “sweetness recognition threshold,” and “sweetness detection threshold” are understood to mean the level at which the lowest known concentration of a certain sweet compound that is perceivable by the human sense of taste and it can vary from person to person. For example, a typical sweetness threshold level for sucrose in water can be 0.5%.
Further for example, the at least one sweetness enhancer to be used can be assayed in water at least 25% lower and at least 25% higher than the sucrose detection level of 0.5% in water to determine the sweetness threshold level.
as §1, §2
The sweetness detection threshold levels for 21 entities were measured by a single assessor in water at room temperature according to the multi-sip and swallow taste method described herein.

[3] = Sweetness enhancement of glucose, fructose or sucrose at 6% SE in water by additive at its threshold level; type: in vivo, human; conditions: for Sweetness of the composition after enhancement: from about 6% SE (sucrose control), REB C at 100 ppm, the other compound at 25 ppm
[4] = By-products of 500 ppm REB A after two months of storage in phosphoric acid at RT; type: physicochemical; conditions: approximated concentration of by-product of 500 ppm REB A
[5] = Sweetness recognition threshold in lemon-lime carbonated beverage at 4° C.; type: in vivo, human; conditions: lemon-lime carbonated beverage (citric buffer) at 4° C., average of six subjects
Procedure: Preliminarily, multi-levels of steviol glycoside solution in lemon-lime beverage at 4° C. were prepared by mixing the calculated formulations to obtain 450, 350, 250 and 150 ppm of steviol glycoside solutions. Those solutions were then tasted by six experienced subjects by using the sip-and-spit protocol disclosed herein. The sweetness recognition threshold for rubusoside was determined to be averaged 150 ppm. For sweetness enhancement test of rubusoside in lemon-lime beverage, it was decided to use a 10 percent less of sweetness recognition threshold or 135 ppm (150−10%=135).

[6] = Rubusoside and 6% sucrose sweetness enhancement test; type: in vivo, human; conditions: 50 mg rubusoside in 1 L of 6% sucrose; scale of 6-10 relative to 6-10% sucrose references; 6% sucrose reference rated 6.1
Procedure: Reference samples were prepared at 6, 7, 8, 9 and 10% sucrose (w/v). The test sample was prepared by addition of 50 mg of rubusoside to 1 L of 6% sucrose. The test sample was mixed with five sucrose control samples of various concentrations in the 6-10% sucrose range. Each of the six samples was then individually rated for sweetness intensity on a scale of 6-10 relative to the 6-10% sucrose references.
The Sweetness Intensity Rating ranged from 6 to 10, for each subject.

[7] = Descriptive sensory analysis of lemon-lime carbonated beverages at 4° C.; type: in vivo, human; conditions: 135 ppm rubusoside added to 8% HFSS lemon-lime beverage
Procedure: Three test products were prepare: a control beverage comprising 10.52% High Fructose Starch Syrup (HFSS), a lemon-lime prototype comprising 8% HFSS and 135 ppm rubusoside, and a standard lemon-lime beverage comprising 8% HFSS.
As part of study design, a full sensorial profile was determined using a Complete Block Design (CBD). All products were randomized and balanced. Each assessor evaluated all products sequentially. Each product was evaluated three times by each assessor. Eight minute time breaks between tasting samples. Unsalted cracker, 0.75% saline solution and mineral grade water was used as a mouth rinse and refresher before each sample. Each assessor was served 75 ml of chilled beverage (4° C.+/−1° C.). Table 5 provides the categories and the descriptions of the various attributes identified in Table 4.

[8] = Rubusoside sweetness detection threshold estimation in water, sip-and-spit, 5 subjects; type: in vivo, human; conditions: 50 ppm solution in purified water, all 5 subjects
Procedure: Preliminarily, a 1,000 ppm steviol glycoside solution was prepared by dissolution of 20 mg steviol glycoside in 20 mL purified water. An aliquot (10 mL) of this solution was diluted to 20 mL with water to obtain a 500 ppm solution. Additional 1:1 serial dilutions were used to obtain 250, 125, 62.5, 31.2 and 15.6 ppm solutions. Those solutions were then tasted in ascending order of concentration by one experienced subject by using the sip-and-spit protocol disclosed herein. The subject's estimated sweetness detection threshold was determined to be at the lowest concentration at which sweetness was definitely observed.
Thereafter, a 200 ppm solution of rubusoside was prepared by dissolution of 20 mg rubusoside in 200 mL purified water. An aliquot (50 mL) of this solution then was diluted to 100 mL with water to obtain a 100 ppm solution. Additional 1:1 serial dilution steps were used to prepare 50 and 25 ppm solutions. These solutions then were tasted in ascending order of concentration by 5 experienced subjects by the sip-and-spit protocol.

[9] = in water; cited from earlier work
[10] = estimation sweetness/off-taste threshold in water at room temperature (RT)

With C=C1CC23CCC4C(C)(C(=O)OC5OC(CO)C(O)C(O)C5O)CCCC4(C)C2CCC1(OC1OC(CO)C(O)C(OC2OC(CO)C(O)C(O)C2O)C1OC1OC(CO)C(O)C(OC2OC(CO)C(O)C(O)C2O)C1O)C3 [13-[(2-O-(3-O-α-D-glucopyranosyl)-β-D-glucopyranosyl-3-O-β-D-glucopyranosyl-β-D-glucopyranosyl)oxy] kaur-16-en-18-oic acid β-D-glucopyranosyl ester] the “Sensory result versus FRU 55,000 ppm” value [1] was “N(S+) (No difference but slightly more sweet (0.5-0.75%))”, the “Sensory result versus GLU 99,000 ppm” value [1] was “N(S+) (No difference but slightly more sweet (0.5-0.75%))” and the “Sensory result versus SUC 60,000 ppm” value [1] was “+S (More sweetness intensity (~1.0% SE))”. For the same compound, the “Sweetness Detection Threshold Level” value ([2]; single assessor) was 25 ppm and the “Sweetness of the composition after enhancement” value [3] was “about 7 % SE”.

In the case of CC1=CC23CCC4C(C)(C(=O)O)CCCC4(C)C2CCC1(OC1OC(CO)C(O)C(OC2OC(CO)C(O)C(O)C2O)C1OC1OC(CO)C(O)C(O)C1O)C3 [13-[(2-O-β-D-glucopyranosyl-3-O-β-D-glucopyranosyl-β-D-glucopyranosyl)oxy] kaur-15-en-18-oic acid], the “Sensory result versus FRU 55,000 ppm” value [1] is reported as “N”, the “Sensory result versus GLU 99,000 ppm” value [1] is reported as “N” and the “Sensory result versus SUC 60,000 ppm” value [1] is reported as “N”. The “Sweetness Threshold Level” value [2, 10] was 35 ppm, the “Sweetness Detection Threshold Level” value ([2]; single assessor) was 35 ppm and the “Levels After 2 Month of Storage” value [4] was 1 ppm.

With CC1(C(=O)OC2OC(CO)C(O)C(O)C2O)CCCC2(C)C3CCC4(OC5OC(CO)C(O)C(OC6OC(CO)C(O)C(O)C6O)C5OC5OC(CO)C(O)C(O)C5O)CC3(CCC12)CC4(C)O [13-[(2-O-β-D-glucopyranosyl-3-O-β-D-glucopyranosyl-β-D-glucopyranosyl)oxy]-16-hydroxy kauran-18-oic acid β-D-glucopyranosyl ester] the “Sensory result versus FRU 55,000 ppm” value [1] was “N”, the “Sensory result versus GLU 99,000 ppm” value [1] was “N” and the “Sensory result versus SUC 60,000 ppm” value [1] was “N”. For the same compound, the “Sweetness Threshold Level” value [2, 10] was 700 ppm, the “Sweetness Detection Threshold Level” value ([2]; single assessor) was 700 ppm and the “Levels After 2 Month of Storage” value [4] was 10 ppm.

With CC1(C(=O)O)CCCC2(C)C3CCC4(OC5OC(CO)C(O)C(OC6OC(CO)C(O)C(O)C6O)C5OC5OC(CO)C(O)C(O)C5O)CC3(CCC12)CC4(C)O [13-[(2-O-β-D-glucopyranosyl-3-O-β-D-glucopyranosyl-β-D-glucopyranosyl)oxy]-16-hydroxy kauran-18-oic acid] the “Sensory result versus FRU 55,000 ppm” value [1] was “N”, the “Sensory result versus GLU 99,000 ppm” value [1] was “N” and the “Sensory result versus SUC 60,000 ppm” value [1] was “N”. The “Sweetness Threshold Level” value ([2]; in water at RT, value is max. level for solubility) was 500 ppm, the “Sweetness Detection Threshold Level” value ([2]; value is max. level for solubility) was 500 ppm and the “Levels After 2 Month of Storage” value [4] was 33 ppm.

In the case of C[C@@]12CCC[C@@](C)(C(=O)O[C@@H]3O[C@H](CO)[C@@H](O)[C@H](O)[C@H]3O)[C@H]1CC[C@]13C=C(CO)[C@](O[C@@H]4O[C@H](CO)[C@@H](O)[C@H](O[C@@H]5O[C@H](CO)[C@@H](O)[C@H](O)[C@H]5O)[C@H]4O[C@@H]4O[C@H](CO)[C@@H](O)[C@H](O)[C@H]4O)(CC[C@H]12)C3 [13-[(2-O-β-D-glucopyranosyl-3-O-β-D-glucopyranosyl]-β-D-glucopyranosyl)oxy]-17-hydroxy-kaur-15-en-18-oic acid β-D-glucopyranosyl ester], the “Sensory result versus FRU 55,000 ppm” value [1] is reported as “N”, the “Sensory result versus GLU 99,000 ppm” value [1] is reported as “N” and the “Sensory result versus SUC 60,000 ppm” value [1] is reported as “N(S+) (No difference but slightly more sweet (0.5-0.75%))”. For the same compound, the “Sweetness Threshold Level” value [2, 10] was 250 ppm, the “Sweetness Detection Threshold Level” value ([2]; single assessor) was 250 ppm and the “Levels After 2 Month of Storage” value [4] was 1 ppm.

For C=C1C[C@@]23CC[C@H]4[C@@](C)(CCC[C@@]4(C)C(=O)O[C@@H]4O[C@H](CO)[C@@H](O)[C@H](O)[C@H]4O)[C@@H]2CC[C@]1(O[C@@H]1O[C@H](CO)[C@@H](O)[C@H](O)[C@H]1O)C3 [Rubusoside], the “Sensory result versus FRU 55,000 ppm” value [1] was “N(S+) (No difference but slightly more sweet (0.5-0.75%))”, the “Sensory result versus GLU 99,000 ppm” value [1] was “N(S+) (No difference but slightly more sweet (0.5-0.75%))” and the “Sensory result versus SUC 60,000 ppm” value [1] was “++S (Much more sweetness intensity (~2.0% SE))”. For the same compound, the Sweetness recognition threshold [5] was 150 ppm, the “Sweetness Detection Threshold Level” value ([2]; single assessor) was 50 ppm and the “Average sweetness intensity rating” value [6] was 7.9. For the same compound, the “Times as sweet as the prototype without rubusoside” value [7] was 1.15 times, the Sweetness equivalence ([7]; interpolation of the data) was 9.2 % HFSS and the “Taste of the solution” value [8] was “absence of taste”. For the same compound, the “Enhancement of the 6% sucrose” value ([3]; rubusoside at 50 ppm, 6% sucrose in water) was “about 2 % SE”.

For OC[C@H]1O[C@@](CO)(O[C@H]2O[C@H](CO)[C@@H](O)[C@H](O)[C@H]2O)[C@@H](O)[C@@H]1O [sucrose], the “Typical sweetness threshold level” value [9] is listed as 0.5%.

With Rebaudioside B the “Sensory result versus FRU 55,000 ppm” value [1] was “N”, the “Sensory result versus GLU 99,000 ppm” value [1] was “N” and the “Sensory result versus SUC 60,000 ppm” value [1] was “N”. For the same compound, the “Sweetness Threshold Level” value [2, 10] was 25 ppm, the “Sweetness Detection Threshold Level” value ([2]; single assessor) was 25 ppm and the “Levels After 2 Month of Storage” value [4] was 17 ppm.

With Rebaudioside C the “Sensory result versus FRU 55,000 ppm” value [1] was “N(S+) (No difference but slightly more sweet (0.5-0.75%))”, the “Sensory result versus GLU 99,000 ppm” value [1] was “N(S+) (No difference but slightly more sweet (0.5-0.75%))” and the “Sensory result versus SUC 60,000 ppm” value [1] was “+S (More sweetness intensity (~1.0% SE))”. The “Sweetness Detection Threshold Level” value ([2]; single assessor) was 100 ppm and the “Sweetness of the composition after enhancement” value [3] was “about 7 % SE”.
